Laboratory results: US20190192456A1, “USE OF CELIPROLOL FOR TREATING VASCULAR EHLERS-DANLOS SYNDROME IN WOMEN DURING PREGNANCY AND PERIPARTUM PERIOD” (Assistance Publique-Hôpitaux de Paris (AP-HP), priority 2017, published 2019)

What was measured:
Type in all cases: in vivo, human
[1] = tested on: newborn of mothers who received celiprolol during pregnancy and delivery; experiment: Newborn well-being after indirect exposure to celiprolol during pregnancy; details: n=7 newborn of mothers who received celiprolol during pregnancy and delivery
Method: For each newborn, weight and height at birth were recorded and presented as a function of term of pregnancy, as previously described. Health status at birth was assessed by the APGAR score noted in the children's health record, and any significant event that occurred at birth was collected (respiratory failure, pneumothorax, significant verifiable birth defects).
Reference charts for birth weight and size were constructed according to Battaglia et al. with normal values based on approximately 57 000 newborn of the Paris (France) area as reported by Salomon et al.[15].

[2] = tested on: parturients with molecularly confirmed vascular Ehlers-Danlos syndrome; experiment: Maternal morbidity study (obstetrical interview study) of vascular EDS parturients; prescription of celiprolol during pregnancy, delivery and post-partum period
Method: For each pregnancy, date and time of delivery were recorded, as well as term of pregnancy at birth, expressed in weeks of amenorrhea (WA). In case of preterm labour or premature rupture of membranes (PROM), gestational age of occurrence was noted. Ongoing treatments during pregnancy were recorded, especially betablockers (celiprolol). In case of anaesthesia, type of ([…], general) and complications were collected (haematoma, leakage of spinal fluid, pneumothorax for general anaesthesia). Delivery was described as follows: type (vaginal, c-section), duration of labour for vaginal delivery and the use of forceps or episiotomy. Vascular complications were defined by the occurrence of arterial dissections and ruptures during pregnancy, delivery and during the post-partum period defined as 42 days after delivery. Haemorrhagic complications were defined by, either significant bleeding when reported as such by patients and/or medical records, either by bleeding requiring blood transfusion or post-partum haemorrhage. Bleeding events >1000 ml with hemodynamic collapse are reported as haemorrhagic shock. Perineal damage was defined by the occurrence of a perineal tear related or not with episiotomy. Perineal injury was graded according to Sultan et al., from grade I (limited defect of perineal skin), to grade IV (injury of the perineum involving the anal sphincter complex and epithelium) perineal tears.
After the first interview, all relevant obstetrical data, especially term of pregnancies and obstetrical complications (preterm labour, PROM, uterine rupture, haemorrhage) were independently checked for accuracy of diagnosis and staging by a senior obstetrician during a second interview, and hospital records of deliveries were checked, when available.
Programmed Early C-Section and Prescription of Celiprolol
In n=12 (20%) pregnancies of this cohort, diagnosis of maternal vascular EDS (n=11, 28%) was suspected (n=2) or genetically confirmed (n=9) at the time of delivery, with consequent obstetrical management (prescription of celiprolol 200 mg BID in n=7 patients covering 7/12 pregnancies; preterm c-section in n=11/12 deliveries, of which 9 were scheduled).

[3] = tested on: parturients with vascular Ehlers-Danlos syndrome; experiment: Maternal mortality analysis of vascular EDS families; details: one patient, 7 months after delivery; programmed early c-section, unremarkable arterial monitoring after the postpartum period
Source text: For the mortality analysis, the medical charts and pedigrees of all patients known to the French referral center for rare vascular diseases (AP-HP, Centre de Référence des Maladies Vasculaires Rares, Hôpital Européen Georges Pompidou, Paris, France) for having a molecularly confirmed vascular EDS, were screened for past or ongoing pregnancies, and for maternal deaths in probands and pedigrees. All families known to our center with at least one proband diagnosed with vascular EDS (nationwide patient cohort) were considered for participation to the maternal mortality analysis after exclusion of ascendants of patients with neomutations (see below). Patients with a personal history of pregnancy were considered for participation to the obstetrical interview study. […]
Maternal deaths were determined according to definitions of the 10th revision of the International Classification of Diseases of the World Health Organization (Geneva 2004). Pregnancy-related deaths defined as the death of a woman while pregnant or within 42 days of termination of pregnancy, irrespective of the cause of death, were determined for probands, first and second degree ascendants. […] A global maternal mortality ratio was then determined, which encompassed pregnancy-related and late maternal mortality ratios. […]

[4] = patients treated with celiprolol 200 mg BID, n=7

CCN(CC)C(=O)Nc1ccc(OCC(O)CNC(C)(C)C)c(C(C)=O)c1 (centres unmarked) [celiprolol, N′-(3-Acetyl-4-(3-((1,1-dimethylethyl)amino)-2-hydroxypropoxy)phenyl)-N,N-diethylurea]
neonatal hypoglycaemia [1]: none of the n=7 newborn
other indications of adverse effects of indirect exposure to celiprolol during pregnancy [1]: nor had other indications of adverse effects
tolerability of celiprolol throughout pregnancy and the post-partum period ([2]; celiprolol 200 mg BID in n=7 patients covering 7/12 pregnancies): well tolerated
dose adjustment in comparison to the dosage prescribed prior to the beginning of each pregnancy ([2]; celiprolol 200 mg BID, n=7 patients, throughout pregnancy and the post-partum period): no dose adjustment was necessary in any patient
arterial event (dissection, rupture) [2, 4]: No arterial event (dissection, rupture)
maternal survival of pregnancies and post-partum periods [2, 4]: all patients treated with celiprolol survived
uterine rupture [2, 4]: nor uterine rupture occurred in any patient
late maternal death by spontaneous intra-abdominal arterial rupture [3]: occurred spontaneously despite a programmed early c-section, medication by celiprolol
